Results as given in ChEMBL document CHEMBL1828590 (J Med Chem, 2011).

What was measured:
Mus musculus [1] = test: Toxicity in athymic nu/nu Harlan mouse xenografted with human HCT116 cells assessed as mouse survival at 100 mg/kg, po QD for 21 days measured on day 22; type: organism-based, HCT-116; design: dose 100 mg/kg, route oral; conditions: in vivo, 504 h
Mus musculus [2] = test: Toxicity in athymic nu/nu Harlan mouse xenografted with human HCT116 cells assessed as body weight loss at 200 mg/kg, po QD for 21 days measured on day 19; type: organism-based, HCT-116; design: dose 200 mg/kg, route oral; conditions: in vivo, 504 h
[3] = Half life in human liver microsomes; type: ADME, Microsome
HCT-116 [4] = test: Antitumor activity against human HCT116 cells xenografted in athymic nu/nu Harlan mouse assessed as tumor growth inhibition at 100 mg/kg, po qd for 21 days measured on day 22; type: functional; conditions: read-out: TGI
[5] = Half life in mouse liver microsomes; type: ADME, Microsome; conditions: liver microsomes
Mus musculus [6] = test: Toxicity in athymic nu/nu Harlan mouse xenografted with human HCT116 cells assessed as mouse survival at 50 mg/kg, po QD for 21 days measured on day 22; type: organism-based, HCT-116; design: dose 50 mg/kg, route oral; conditions: in vivo, 504 h
HCT-116 [7] = test: Antitumor activity against human HCT116 cells xenografted in athymic nu/nu Harlan mouse assessed as tumor growth inhibition at 200 mg/kg, po qd for 21 days measured on day 22; type: functional; conditions: read-out: TGI
[8] = Half life in rat liver microsomes; type: ADME, Microsome
[9] = Kinetic solubility of the compound at pH 7 with […] DMSO; type: physicochemical; conditions: buffer, read-out: Kinetic_solubility
[10] = Half life in dog liver microsomes; type: ADME, Canis lupus familiaris, Microsome
Mus musculus [11] = test: Toxicity in athymic nu/nu Harlan mouse xenografted with human HCT116 cells assessed as body weight loss at 100 mg/kg, po QD for 21 days measured on day 8; type: organism-based, HCT-116; design: dose 100 mg/kg, route oral; conditions: in vivo, 504 h
HCT-116 [12] = test: Antitumor activity against human HCT116 cells xenografted in athymic nu/nu Harlan mouse assessed as tumor growth inhibition at 50 mg/kg, po qd for 21 days measured on day 22; type: functional; conditions: read-out: TGI
Mus musculus [13] = test: Toxicity in athymic nu/nu Harlan mouse xenografted with human HCT116 cells assessed as mouse survival at 25 mg/kg, po QD for 21 days measured on day 22; type: organism-based, HCT-116; design: dose 25 mg/kg, route oral; conditions: in vivo, 504 h
HCT-116 [14] = test: Antitumor activity against human HCT116 cells xenografted in athymic nu/nu Harlan mouse assessed as tumor growth inhibition at 25 mg/kg, po qd for 21 days measured on day 22; type: functional; conditions: read-out: TGI
Mus musculus [15] = test: Toxicity in athymic nu/nu Harlan mouse xenografted with human HCT116 cells assessed as body weight loss at 100 mg/kg, po QD for 21 days measured on day 22; type: organism-based, HCT-116; design: dose 100 mg/kg, route oral; conditions: in vivo, 504 h
[16] = Apparent permeability from basolateral to apical side of human Caco2 cells; type: ADME, cell-based; conditions: Caco-2
[17] = 1-Octanol-sodium phosphate buffer distribution coefficient, log D of the compound at pH 7.4; type: physicochemical; conditions: 1-octanol/sodium phosphate buffer, read-out: logD
[18] = Apparent permeability from apical to basolateral side of human Caco2 cells; type: ADME, cell-based; conditions: Caco-2
Mus musculus [19] = test: Toxicity in athymic nu/nu Harlan mouse xenografted with human HCT116 cells assessed as body weight loss at 50 mg/kg, po QD for 21 days measured on day 5; type: organism-based, HCT-116; design: dose 50 mg/kg, route oral; conditions: in vivo, 504 h
Mus musculus [20] = test: Toxicity in athymic nu/nu Harlan mouse xenografted with human HCT116 cells assessed as mouse survival at 200 mg/kg, po QD for 21 days measured on day 22; type: organism-based, HCT-116; design: dose 200 mg/kg, route oral; conditions: in vivo, 504 h
Mus musculus [21] = test: Toxicity in nude BALB/c mouse xenografted with human HCT116 cells assessed as body weight loss at 200 mg/kg, po QD for 21 days measured on day 19; type: organism-based, HCT-116; design: dose 200 mg/kg, route oral; conditions: in vivo, 504 h
Mus musculus [22] = test: Toxicity in athymic nu/nu Harlan mouse xenografted with human HCT116 cells assessed as body weight loss at 300 mg/kg, po QD for 21 days measured on day 19; type: organism-based, HCT-116; design: dose 300 mg/kg, route oral; conditions: in vivo, 504 h
Mus musculus [23] = test: Toxicity in nude BALB/c mouse xenografted with human HCT116 cells assessed as mouse survival at 200 mg/kg, po QD for 21 days measured on day 22; type: organism-based, HCT-116; design: dose 200 mg/kg, route oral; conditions: in vivo, 504 h
Mus musculus [24] = test: Toxicity in nude BALB/c mouse xenografted with human A2780 cells assessed as maximum body weight loss at 200 mg/kg, po QD for 21 days measured on day 13; type: organism-based; design: dose 200 mg/kg, route oral; conditions: in vivo, 504 h
[25] = Oral bioavailability in nude BALB/c mouse at 50 mg/kg; type: ADME, organism-based; conditions: in vivo
COLO 205 = test: Antiproliferative activity against human COLO205 cells after 96 hrs by celltiter 96 assay; type: functional, cell-based; conditions: COLO 205, 96 h
Mus musculus [26] = test: Toxicity in athymic nu/nu Harlan mouse xenografted with human HCT116 cells assessed as body weight loss at 200 mg/kg, po QD for 21 days measured on day 8; type: organism-based, HCT-116; design: dose 200 mg/kg, route oral; conditions: in vivo, 504 h

SMILES | Activity (Mus musculus [1]) | Activity (Mus musculus [2]) [%] | half-life [3] [min] | inhibition in vivo at 100 mg/kg (HCT-116 [4]) [%] | half-life [5] [min] | Activity (Mus musculus [6]) | half-life [8] [min] | solubility kinetic [9] [µM] | half-life [10] [min] | inhibition in vivo at 50 mg/kg (HCT-116 [12]) [%] | further results
CCCCc1nc2cc(/C=C/C(=O)NO)ccc2n1CCNC(C)C.Cl.Cl | Non-toxic | 7.9 | > 60 | 60 | 36 | Non-toxic | 3.3 | > 200 | > 60 | 19 | inhibition in vivo at 200 mg/kg (HCT-116 [7]): 90%; Activity (Mus musculus [11]): 5%
CN(C)CC(C)(C)Cn1c(CC(C)(C)C)nc2cc(/C=C/C(=O)NO)ccc21.Cl.Cl | Non-toxic |  | > 60 | 85 | 20 | Non-toxic | 41 | > 200 | > 60 | 55 | Activity (Mus musculus [13]): Non-toxic; inhibition in vivo at 25 mg/kg (HCT-116 [14]): 30%; Activity (Mus musculus [15]): 13.1%; Papp B→A [16]: 149 nm/s; logD [17]: 2.41; Papp A→B [18]: 194 nm/s; Activity (Mus musculus [19]): 5.6%
O=C(CCCCCCC(=O)Nc1ccccc1)NO [VORINOSTAT] |  | 4.6 | > 60 |  | > 60 |  | > 60 | > 200 | > 60 |  | Activity (Mus musculus [20]): Non-toxic; Activity (Mus musculus [21]): 1.9%; Activity (Mus musculus [22]): 5.5%; Activity (Mus musculus [23]): Non-toxic; Activity (Mus musculus [24]): 9.3%; bioavailability [25]: 8.3%; IC50 (COLO 205): 2.12 µM; Activity (Mus musculus [26]): 8.9%
